US9676788B2, “Aza-epoxy-guaiane derivatives and treatment of cancer” (The United States of America, as represented by the …, priority 2014, dated 2017)
Where “and” joins values, the source holds several entries; their conditions need not be identical. Equal values may be shown once. Read-outs that look alike come from different tables or passages of the source.

Key:
[1] = Plasma concentration in mice over time after oral gavage (LC-MS/MS); format: in vivo
Procedure: Ten mice were administered 50 mg/kg of compound 9 in Labrasol vehicle via oral gavage. Two mice at a time were sacrificed at the following time points: 5 min, 15 min, 1 h, 4 h, and 8 h. Plasma concentrations of compound 9 were measured by LC-MS/MS, and the results set forth in Table 4 and depicted graphically in FIG. 7.
It was subsequently discovered that an error was made in weighing out compound 9 for formulation of a 5 mg/mL solution in Labrasol. The underweight formulation was confirmed to be about 40% of the expected concentration.

[2] = tested on: HS 578T (breast cancer); assay: NCI 60-cell line protocol, Breast Cancer HS 578T; format: cell-based, human; conditions: SRB endpoint; for GI50: Homo sapiens, Hs-578T, 48 h, five 10-fold dilutions, two days exposure; for HS 578T one dose (%): one-dose protocol, single final concentration of 10 micromolar, two days
[3] = tested on: A498 (renal cancer); assay: NCI 60-cell line protocol, Renal Cancer A498; format: cell-based, human; conditions: SRB endpoint; for GI50: Homo sapiens, A498, 48 h, five 10-fold dilutions, two days exposure; for A498 one dose (%): one-dose protocol, single final concentration of 10 micromolar, two days
[4] = Plasma concentration in mice 30 minutes after oral gavage, by dose (LC-MS); format: in vivo
Procedure: Mice were dosed at 5 mg/kg, 10 mg/kg, 50 mg/kg, and 100 mg/kg compound 9 in Labrasol vehicle via oral gavage. 30 minutes after dosing, plasma was assayed for the concentration of compound 9 using LC-MS. The results are depicted graphically in FIG. 5.

[5] = tested on: ACHN (renal cancer); assay: NCI 60-cell line protocol, Renal Cancer ACHN; format: cell-based, human; conditions: SRB endpoint; for GI50: Homo sapiens, ACHN, 48 h, five 10-fold dilutions, two days exposure; for ACHN one dose (%): one-dose protocol, single final concentration of 10 micromolar, two days
[6] = tested on: M14; assay: NCI 60-cell line protocol, Melanoma M14; conditions: single dose 10 μM, two days exposure, SRB endpoint
Procedure: (§1) Samples were tested in the standard National Cancer Institute 60-cell line protocol. First, they were tested against all 60 cell lines in a single final concentration of 10 micromolar. Then, they were separately tested in five 10-fold dilutions. The drug exposure was for two days, with an SRB endpoint.
(§2) Samples were tested in the standard National Cancer Institute 60-cell line protocol. The dosing protocol was a single dose of the compound at 10 μM concentration.

[7] = tested on: SK-MEL-28; assay: NCI 60-cell line protocol, Melanoma SK-MEL-28; conditions: SK-MEL-28 (Melanoma); single dose 10 μM; two days exposure; SRB endpoint
Procedure: as §1, §2

[8] = tested on: RPMI-8226; assay: NCI 60-cell line protocol, Leukemia RPMI-8226; conditions: RPMI-8226 (Leukemia); single dose 10 μM; two days exposure; SRB endpoint
Procedure: as §1, §2

[9] = tested on: CCRF-CEM; assay: NCI 60-cell line protocol, Leukemia CCRF-CEM; conditions: single dose 10 μM, two days exposure, SRB endpoint
Procedure: as §1, §2

[10] = tested on: SK-MEL-5; assay: NCI 60-cell line protocol, Melanoma SK-MEL-5; conditions: SK-MEL-5 (Melanoma); single dose 10 μM; two days exposure; SRB endpoint
Procedure: as §1, §2

[11] = tested on: MDA-MB-435; assay: NCI 60-cell line protocol, Melanoma MDA-MB-435; conditions: MDA-MB-435 (Melanoma); single dose 10 μM; two days exposure; SRB endpoint
Procedure: as §1, §2

[12] = tested on: K-562; assay: NCI 60-cell line protocol, Leukemia K-562; conditions: K-562 (Leukemia); single dose 10 μM; two days exposure; SRB endpoint
Procedure: as §1, §2

[13] = tested on: MALME-3M; assay: NCI 60-cell line protocol, Melanoma MALME-3M; conditions: MALME-3M (Melanoma); single dose 10 μM; two days exposure; SRB endpoint
Procedure: as §1, §2

[14] = tested on: LOX IMVI; assay: NCI 60-cell line protocol, Melanoma LOX IMVI; conditions: single dose 10 μM, two days exposure, SRB endpoint
Procedure: as §1, §2

[15] = tested on: UACC-62; assay: NCI 60-cell line protocol, Melanoma UACC-62; conditions: UACC-62 (Melanoma); single dose 10 μM; two days exposure; SRB endpoint
Procedure: as §1, §2

[16] = tested on: SK-MEL-2; assay: NCI 60-cell line protocol, Melanoma SK-MEL-2; conditions: SK-MEL-2 (Melanoma); single dose 10 μM; two days exposure; SRB endpoint
Procedure: as §1, §2

[17] = tested on: SA; assay: NCI 60-cell line protocol, Leukemia SA; format: cell-based, human; conditions: single dose 10 μM, two days exposure, SRB endpoint
[18] = tested on: UACC-257; assay: NCI 60-cell line protocol, Melanoma UACC-257; conditions: UACC-257 (Melanoma); single dose 10 μM; two days exposure; SRB endpoint
Procedure: as §1, §2

[19] = tested on: MOLT-4; assay: NCI 60-cell line protocol, Leukemia MOLT-4; format: cell-based, human; conditions: MOLT-4 (Leukemia); single dose 10 μM; two days exposure; SRB endpoint
[20] = tested on: HL-60(fB); assay: NCI 60-cell line protocol, Leukemia HL-60(fB); format: cell-based, human; conditions: HL-60(fB) (Leukemia); single dose 10 μM; two days exposure; SRB endpoint

Structure (SMILES)	GI50 [2]	HS 578T one dose (%) [2]	GI50 [3]	A498 one dose (%) [3]	GI50 [5]	ACHN one dose (%) [5]	Growth Percent [6]	Growth Percent [7]	Growth Percent [8]	Growth Percent [9]	Growth Percent [10]	Growth Percent [11]	Growth Percent [12]	Growth Percent [13]	Growth Percent [14]	Growth Percent [15]	Growth Percent [16]	Growth Percent [17]	Growth Percent [18]	further results
CC1CCC2C1C(OC(=O)/C=C/c1ccccc1)C1(C(C)C)CC(NC(=O)CO)C2(C)O1 (centres unmarked) [Compound 9]	830 nM	9.45%	160 nM	−15.20%	4000 nM	8.01%	–	–	–	–	–	–	–	–	–	–	–	–	–	[Aza-Englerin] (ng/mL), single animal ([1]; mice plasma, 50 mg/kg oral gavage in Labrasol, time 0.0833 hr, 50 mg/kg): 13.20 ng/mL; [Aza-Englerin] (ng/mL), single animal ([1]; mice plasma, 50 mg/kg oral gavage in Labrasol, time 0.2500 hr, 50 mg/kg): 22.76 ng/mL and 58.70 ng/mL; [Aza-Englerin] (ng/mL), single animal ([1]; mice plasma, 50 mg/kg oral gavage in Labrasol, time 1.0000 hr, 50 mg/kg): 59.24 ng/mL; [Aza-Englerin] (ng/mL), single animal ([1]; mice plasma, 50 mg/kg oral gavage in Labrasol, time 4.0000 hr, 50 mg/kg): 31.12 ng/mL and 86.81 ng/mL; [Aza-Englerin] (ng/mL), single animal ([1]; mice plasma, 50 mg/kg oral gavage in Labrasol, time 8.0000 hr, 50 mg/kg): 48.21 ng/mL; oral bioavailability ([1]; mice, oral gavage 50 mg/kg in Labrasol): orally bioavailable; absorption ([1]; mice, oral gavage in Labrasol): rapidly absorbed; time for which plasma concentrations are sustained ([1]; mice, oral gavage in Labrasol): greater than 8 h; concentration at 5 min ([1]; mouse, plasma, po, 50 mg/kg, mice plasma, 50 mg/kg oral gavage in Labrasol, time 0.0833 hr, mean of two mice, read-out: [Aza-Englerin] Mean): 10 ng/mL; concentration at 5 min ([1]; mouse, plasma, po, 50 mg/kg, mice plasma, 50 mg/kg oral gavage in Labrasol, time 0.0833 hr, read-out: [Aza-Englerin] (ng/mL), single animal): 6.87 ng/mL; concentration at 0.25 h ([1]; mouse, plasma, po, 50 mg/kg, mice plasma, 50 mg/kg oral gavage in Labrasol, time 0.2500 hr, mean of two mice, read-out: [Aza-Englerin] Mean): 40.7 ng/mL; concentration at 1 h ([1]; mouse, plasma, po, 50 mg/kg, mice plasma, 50 mg/kg oral gavage in Labrasol, time 1.0000 hr, mean of two mice, read-out: [Aza-Englerin] Mean): 73.2 ng/mL; concentration at 1 h ([1]; mouse, plasma, po, 50 mg/kg, mice plasma, 50 mg/kg oral gavage in Labrasol, time 1.0000 hr, read-out: [Aza-Englerin] (ng/mL), single animal): 87.2 ng/mL; concentration at 4 h ([1]; mouse, plasma, po, 50 mg/kg, mice plasma, 50 mg/kg oral gavage in Labrasol, time 4.0000 hr, mean of two mice, read-out: [Aza-Englerin] Mean): 59 ng/mL; concentration at 8 h ([1]; mouse, plasma, po, 50 mg/kg, mice plasma, 50 mg/kg oral gavage in Labrasol, time 8.0000 hr, mean of two mice, read-out: [Aza-Englerin] Mean): 67.8 ng/mL; concentration at 8 h ([1]; mouse, plasma, po, 50 mg/kg, mice plasma, 50 mg/kg oral gavage in Labrasol, time 8.0000 hr, read-out: [Aza-Englerin] (ng/mL), single animal): 87.3 ng/mL; AUC(0-t) ([1]; mouse, mice plasma, 50 mg/kg oral gavage in Labrasol, SE=97.3 hr*ng/mL): 524 ng·h/mL; concentration at 30 min ([4]; mouse, plasma, 100 mg/kg oral gavage in Labrasol, 30 minutes after dosing): ~700 ng/mL; oral bioavailability ([4]; oral gavage 5-100 mg/kg in Labrasol): orally bioavailable
C/C(=C\C(=O)OC1C2C(C)CCC2C2(C)OC1(C(C)C)CC2NC(=O)CO)c1ccccc1 (centres unmarked) [Compound 10]	2200 nM	−8.92%	1100 nM	−24.59%	3300 nM	27.88%	100.16%	117.95%	125.43%	94.07%	101.11%	105.86%	92.32%	95.9%	100.2%	101.83%	104.13%	117.13%	92.39%	–
CC(C)[C@@]12C[C@@H](NC(=O)CO)[C@@](C)(O1)[C@@H]1CC[C@@H](C)[C@H]1[C@@H]2OC(=O)/C=C/C1CCCCC1 [Compound 11]	6200 nM	73.09%	5600 nM	41.34%	17000 nM	99.90%	–	–	–	–	–	–	–	–	–	–	–	–	–	–
CC(C)[C@@]12C[C@@H](NC(=O)CO)[C@@](C)(O1)[C@@H]1CC[C@@H](C)[C@H]1[C@@H]2OC(=O)c1ccc2ccccc2c1 [Compound 12]	2200 nM	−18.26%	1600 nM	−15.23%	5400 nM	8.40%	–	–	–	–	–	–	–	–	–	–	–	–	–	–
CC1CCC2C1C(OC(=O)/C=C/c1ccccc1)C1(C(C)C)CC(NC(=O)CF)C2(C)O1 (centres unmarked) [Compound 31]	–	92.63%	–	83.31%	–	104.52%	96.67%	109.79%	94.34%	88.63%	110.24%	106.48%	106.42%	106.46%	102.48%	99.56%	116.95%	85.46%	104.8%	Growth Percent [19]: 96.46%; Growth Percent [20]: 104.52%
